The text below walks through data of patent publication US20090264342A1, “COMPOSITIONS AND METHODS FOR ANTIBIOTIC POTENTIATION AND DRUG DISCOVERY” (priority 2006, published 2009).

Holding throughout (assay type): cell-based
In one assay the test system is wild type E. coli. The assay is described as follows: Growth of wild type E. coli in the presence of quinolone (OD600). The source says: Each deletion strain was constructed by replacing the chromosomal copy of the relevant gene in a wild type E. coli strain (K-12) with a selectable antibiotic resistance gene, essentially as described, to create a precise gene deletion (Datsenko, K. A. and Wanner, B. L., “One-step inactivation of chromosomal genes in Escherichia coli K-12 using PCR products”, Proc Natl Acad Sci USA, 97, 6640-6645, […]); Baba, T., Ara, T., Okumura, Y., iki Hasegawa, M., Takai, Y., Baba, M., Oshima, T., Tomita, M., Wanner, B. and Mori, H. (2003) Systematic construction of single gene deletion mutants in Escherichia coli K-12 (in preparation) and see also the web site at ecoli.aist-nara.ac.jp/gb5/Resources/deletion/deletion.html).
For each mutant, the ratio of growth of the mutant in the presence of a sublethal concentration of quinolone to growth of the mutant in the absence of quinolone was calculated after 12 hours of growth at 37° C., based on OD600 measurements. […]

For the next assay, the system named is S. aureus strain RN4220. The assay is described as follows: MIC of Nor for S. aureus RN4220 and RN4220 recA−. As to conditions: Staphylococcus aureus. The method, then:
The growth and response to quinolone of S. aureus strain RN4220 (wild type) and its recA^− derivative (RN4220 recA^−) were first examined. These strains have been described in the literature (Bayles et al., 1994). The RN4220 recA null mutant (RN4220 recA^−) contains the recA569 allele and is referred to KB103 in Bayles, et al., 1994. […] MICs were determined as described above.
Further details of the assay are as follows: Overnight mutant MG1655 or Staph cultures of clones were grown in 5 mL of LB with appropriate selective agents at 37° C. with shaking. A morning culture was started in a 96 well plate with 16 μL of cells into 1.6 mL of LB and the appropriate plasmid selective agent. […] Serial dilutions were done with 100 μL of drug into 100 μL of H2O. […] 20 μL of each log phase culture was put into a well of one row of a 96 well plate containing […] of LB and the appropriate selective agent. 4.5 μL of each drug concentration was arrayed into the 8 rows of a sterile 300 μL 96-well plate. 250 μL of inoculated culture was added to each column of the sterile 300 μL 96-well plate with drug. The final plate has a different clone in each column and a different Norfloxacin concentration in each row. Plates were grown overnight at 37° C. with shaking. The OD600 of the plate was measured after 16 hours.

The test system of assay [1] is wild-type strain of S. aureus. Briefly: Hydroxyl radical formation (HPF dye, flow cytometry) in S. aureus. As to conditions: norfloxacin, chloramphenical. The method, then:
For work with S. aureus, a Staphylococcus aureus subspecies aureus Rosenback strain was used that was obtained from ATCC (29740).
Growth Conditions. In the experiments, the growth and survival of untreated exponential phase E. coli, or S. aureus, were compared to cultured treated with antibiotics at the above concentrations. E. coli cultures were treated with norfloxacin, kanamycin, ampicillin, rifamycin SV, chloramphenical, tetracycline, erythromycin, or spectinomycin, where appropriate, S. aureus cultures were treated with norfloxacin, vancomycin or chloramphenical, where appropriate.
Hydroxyl radical and DNA damage sensor experiments using the flow cytometer. To monitor the occurrence of DNA damage, the engineered DNA damage sensor was used, which responds to auto-cleavage of LexA by activating expression of gfpmut3b. All the drug treatments and the no-drug controls were collected with both the kanamycin- and ampicillin-resistant version of the plasmid, with the exception of the ampicillin treatment (kanamycin plasmid only) and the kanamycin treatment (ampicillin plasmid only). All data were collected using a Becton Dickinson FACSCalibur flow cytometer (Becton Dickinson, San Jose, Calif.) with a 488-nm argon laser and a 515- to 545-nm emission filter (FL1) at low flow rate. The following PMT voltage settings were used: E00 (FSC), 360 (SSC) and 700 (FL1). To detect hydroxyl radical formation, the fluorescent reporter dye, 3′-(p-hydroxyphenyl) fluorescein (HPF, Invitrogen, Carlsbad, Calif.) was used at a concentration of 5 μM (1:1000) dilution), which is oxidized by hydroxyl radicals with high specificity. The following PMT voltage settings were used: E00 (FSC), 360 (SSC) and 825 (FL 1). Calibrite beads (Becton Dickinson) were used for instrument calibration.

The subject of assay [2] is SOS response (LexA auto-cleavage) in E. coli. Briefly: SOS induction, LexA-controlled GFP DNA damage sensor. As to conditions: 5 μg/mL Amp, 5 μg/mL Kan, 25 ng/mL Nor; 3 hours after addition. On the procedure: FIG. 37 is a set of two graphs showing SOS induction in E. coli by bactericidal antibiotics. Activation of the SOS response was monitored using an engineered sensor construct that employs the LexA repressor for control of Green Fluorescent Protein (GFP) expression. Shown are representative GFP histogram measurements taken 3 hours after addition of a, bactericidal antibiotics (5 μg/mL Amp, 5 μg/mL Kan, 25 ng/mL Nor). b, Log change in CFU/mL of ΔrecA E. coli following exposure to 5 μg/mL Kanamycin (open diamonds), 25 ng/mL Norfloxacin (open triangles), and 5 μg/mL Ampicillin (open circles). For comparison, CFU/mL are also shown for widltype E. coli exposed to 5 μg/mL Kanamycin (diamonds), 25 ng/mL Norfloxacin (triangles), and 5 μg/mL Ampicillin (circles), as well as a lower concentration of norfloxacin in these experiments to highlight the significant increase in killing in a recA knockout.
DNA damage sensor construction. The DNA sensor construct with ampicillin resistance was described previously (D. J. Dwyer et al., “Superoxide and hydroxyl radicals contribute to gyrase inhibitor-mediated cell death in E. coli”, 2007 accepted by Mol. Syst. Biol., which is incorporated herein by reference in its entirety).
Hydroxyl radical and DNA damage sensor experiments using the flow cytometer. […]
Hydroxyl radical are extremely toxic, and will readily damage membrane lipids, proteins and DNA. […]

As usually defined, the MIC is the lowest concentration found to suppress growth. Regarding `CCn1cc(C(=O)O)c(=O)c2cc(F)c(N3CCNCC3)cc21` [Nor, norfloxacin], in the assay on wild type E. coli (0.05 μg/mL Nor (sublethal concentration)), the “bacterial growth, % of wild type levels” value is 80%. Further, in the assay with wild type E. coli (wild type E. coli), the “concentration that fully inhibits growth of wild type E. coli (lethal concentration)” value worked out at 0.1 µg/mL. Moreover, the MIC was 1.53 µg/mL in the assay on S. aureus strain RN4220 (RN4220, RN4220) and 0.38 µg/mL in the assay on S. aureus strain RN4220 (RN4220, RN4220 recA−). Besides, the hydroxyl radical formation entry in assay [1] is on record as “increase in hydroxyl radical production”. Moreover, the “SOS activity (LexA-driven GFP expression)” value in assay [2] is “significant increase in SOS activity”.
